We go through ten molecules from US20190337899A1, “QUINOLINE SULFONAMIDES USEFUL TO TREAT DISEASE” (priority 2015, published 2019).

For one test, the system named is Ob/ob mice. As to the kind of experiment: Effect of a SERCA agonist on the level of blood glucose. As to conditions: Mus musculus, ip, 96 h, 50 mg/kg i.p. once a day for 5 days, fasting glucose 4 days after administration vs baseline, read-out: Glucose level reduction. Format: in vivo. As for the experimental part:
Ob/ob mice (10 weeks old, n=7) were intraperitoneally (i.p.) injected with 100 μL of a solution containing 0 (vehicle) or 50 mg/kg of a test compound once a day for a total of 5 days. Fasting glucose was measured at baseline and 4 days after the administration of the test compound. Glucose levels were measured in blood samples drawn from the tail vein using a handheld glucose sensor. Compound effects on blood glucose are shown in Table 5 where A represents a 10-20% reduction in blood glucose, B represents a 21-30% reduction in blood glucose, and C represents a greater than 30% reduction in blood glucose levels.

For a further test, the system named is HEK293 cells; N2a cells. The test can be described thus: Cell rescue assay: protection against thapsigargin (TG)-induced cell-death (AlamarBlue). Format: cell-based, Human (HEK293); Mouse (N2a). Conditions: Homo sapiens; compound at 20 μM, 2 hrs before thapsigargin (15 μM HEK293, 1 μM N2a), 24 hrs, viability as % RFU of control; read-out: Cell Survival %. As for the experimental part:
Protection against Thapsigargin (TG)-induced Cell-death. Human embryonic kidney (HEK293) cells were grown in Dulbecco's Modified Eagle's Medium (DMEM) with 10% FBS and 1% antibiotic antimycotic solution (ABAM). Mouse neuroblastoma (N2a) cells were grown in 1:1 DMIEM:OPTI-MIEM® with 5% FBS and 1% ABAM. All cells were grown in 10% CO2 in a humidified environment of the incubator. Cells grown in 96-well plates were exposed to a test compound (20 μM) for 2 hrs before addition of thapsigargin (15 μM for HEK293 cells and 1 μM for N2a cells) to induce ER stress. After incubation in cell-culture incubator for 24 hrs, ALAMARBLUE® regent (10% v/v) was added to the wells. Fluorescence reading was taken 2 hrs after the addition of the ALAMARBLUE® regent. Cell-viability was calculated as a percentage of relative fluorescence unit (RFU) compared to control. […] The biological results are summarized in Table 2, where each compound was tested at 20 μM and where A represents a viability greater than 50%, B represents a viability greather than 10% and less than or equal to 50%, C represents a value equal to or below 10% and greater than 1%.
In general terms: Alamar Blue is a resazurin reagent that responds to reducing activity.

Another test concerns the target T1, SERCA (Homo sapiens, UniProt P16615).
T1 construct: microsomal preparations from HEK 293 cells; endogenous in cells; host or cells: HEK 293 cells (microsomal preparation)
As to the kind of experiment: Ca-ATPase assay (NADH-linked, enzyme-coupled ATPase assay). Format: biochemical. As to conditions: microsomal preparations from HEK 293 cells, Vmax from Hill fit of ATPase calcium-dependence. As for the experimental part: A Ca-ATPase assay was performed using microsomal preparations from HEK 293 cells at a series of calcium concentrations corresponding to the physiological range, relative to controls. The ATP hydrolysis rate was measured over a range of calcium concentrations in the presence of test compounds using an NADH-linked, enzyme-coupled ATPase assay adapted for 96-well microplates, with Vmax determined by fitting the ATPase calcium-dependence to the Hill function. Each well contained 2 μg or 7 μg of SR vesicles (optimized for skeletal or cardiac SR, respectively), 50 mM MOPS (pH 7.0), 100 mM KCl, 5 mM MgCl2, 1 mM EGTA, 0.2 mM NADH, 1 mM phosphoenol pyruvate, 5 IU pyruvate kinase, 5 IU lactate dehydrogenase, and 3.5 μg/mL A23187 (a calcium ionophore). CaCl2 was added to set free [Ca^2+] to the specific values. The assay was started upon addition of ATP at a final concentration of 5 mM, and read in a SpectraMax Plus microplate spectrophotometer. The results are summarized in Table 4, where A represents an increase in SERCA Vmax greater than 50% and B represents a value greater than 10% and less than or equal to 50%.

The test system of a further test is SH-SY5Y cells. As to the kind of experiment: Cell rescue assay: protection against β-amyloid-induced cell toxicity. As to conditions: Homo sapiens, 96 h, 7.5 uM compound, AB1-42 at 10 uM, 4 days, OD 490 nm, read-out: Cell Survival % (cell rescue). Format: cell-based. The protocol:
Protection against β-amyloid-induced cell toxicity. Chonpathompikunlert et al. Eu. J. Pharmacol. 2011, 650, 544-549. Human SH-SY5Y cells are suspended in media containing 2% FBS and 2X Gentamicin. Transfer 100 ul/well culture to 96-well plate (20,000 cells/well; passage #5) and incubate overnight. Prepare compound samples at 30 uM. Add 50 ul of the samples to the cells [[…]] and incubate 3 hours. Make stock of 40 uM AB1-42 peptide in assay media. Transfer 50 ul/well to cells/compounds in assay plate. The final assay volume is 200 ul/well, containing 2% FBS, 2× Gentamicin, 7.5 uM compound and AB1-42 at 10 uM. Incubate for 4 days then add 20 µl of Promega Substrate Cell Titer 96 Aqueous One Solution Reagent to each well. Incubate 37° C. and read OD at 490 nm. The results are summarized in Table 3, where A represents a value greater than 50% cell rescue, B represents a value greater than 10% and less than or equal to 50% cell rescue, and C represents a value greater than 1% and less than or equal to 10% cell rescue.

Another test relates to CSM14.1 neuronal cells. The test can be described thus: Cell survival assay (thapsigargin-treated CSM14.1 neuronal cells, CellTiter-Glo). Format: cell-based. Conditions: compound 2 hrs before about 15 μM thapsigargin, overnight, CellTiter-Glo luminescence. As for the experimental part:
CSM14.1 neuronal cells were maintained in Complete Medium at 32 ° C.; wherein the Complete Medium contained Dulbecco's modified eagle medium (DMEM) with 10% fetal bovine serum (FSB), 1% L-glutamine, 100 IU/mL penicillin, and 100 μg/mL streptomycin. The cells were recovered from cultures by trypsinization and then seeded in 384 well plates (Greiner #781098) at a concentration of 1,000 cells/well in 20 μL of DMEM Assay Medium, wherein the DMEM Assay Medium contained 2% FBS, 100 IU/mL penicillin, and 100 μg/mL streptomycin. Seeding was performed using a MultiDrop Combi reagent broadcaster. The plates were incubated overnight at 32° C. A test compound was prepared by 2-fold serial dilution in 100% DMSO using a BIOMEK® 2000 liquid handler (Beckman Coulter). A dose-response curve containing 10 concentrations of the test compound was obtained. Using a BIOMEK® FX liquid handler (Beckman Coulter), 2.5 μL of the test compound was transferred from the 100% DMSO serial dilution plate to an intermediate plate containing 47.5 μL of DMEM Assay Medium containing 2% FBS, 100 IU/mL penicillin, and 100 μg/mL streptomycin and mixed. To reduce or eliminate the interference from the compound's precipitation, 6 μL of the diluted compound was immediately transferred to the assay plate to achieve a high compound concentration of 100 μM in 99% DMEM Assay Medium and 1% DMSO. After the assay plates were incubated for 2 hrs, 4 μL of 112.5 μM thapsigargin (TG) (DMSO stock diluted into Assay TC Medium) was dispensed into each testing well with a MultiDrop Combi reagent broadcaster for a final concentration of about 15 μM TG. The tissue culture media (4 μL) containing vehicle only was transferred manually to each control cell using a 16 channel electronic pipette. After the plates were incubated overnight (about 16 to 24 hrs), CELLTITER-GLO® (Promega) (16 μL) was added to all wells and luminescence was measured. High luminescence indicates cell survival. The biological results are summarized in Table 1 where A represents a cell viability EC50 less than 10 μM and B represents a value greater than or equal to 10 μM and less than 20 μM.

The structures appear in SMILES notation.

T1 sequence (P16615 whole entry): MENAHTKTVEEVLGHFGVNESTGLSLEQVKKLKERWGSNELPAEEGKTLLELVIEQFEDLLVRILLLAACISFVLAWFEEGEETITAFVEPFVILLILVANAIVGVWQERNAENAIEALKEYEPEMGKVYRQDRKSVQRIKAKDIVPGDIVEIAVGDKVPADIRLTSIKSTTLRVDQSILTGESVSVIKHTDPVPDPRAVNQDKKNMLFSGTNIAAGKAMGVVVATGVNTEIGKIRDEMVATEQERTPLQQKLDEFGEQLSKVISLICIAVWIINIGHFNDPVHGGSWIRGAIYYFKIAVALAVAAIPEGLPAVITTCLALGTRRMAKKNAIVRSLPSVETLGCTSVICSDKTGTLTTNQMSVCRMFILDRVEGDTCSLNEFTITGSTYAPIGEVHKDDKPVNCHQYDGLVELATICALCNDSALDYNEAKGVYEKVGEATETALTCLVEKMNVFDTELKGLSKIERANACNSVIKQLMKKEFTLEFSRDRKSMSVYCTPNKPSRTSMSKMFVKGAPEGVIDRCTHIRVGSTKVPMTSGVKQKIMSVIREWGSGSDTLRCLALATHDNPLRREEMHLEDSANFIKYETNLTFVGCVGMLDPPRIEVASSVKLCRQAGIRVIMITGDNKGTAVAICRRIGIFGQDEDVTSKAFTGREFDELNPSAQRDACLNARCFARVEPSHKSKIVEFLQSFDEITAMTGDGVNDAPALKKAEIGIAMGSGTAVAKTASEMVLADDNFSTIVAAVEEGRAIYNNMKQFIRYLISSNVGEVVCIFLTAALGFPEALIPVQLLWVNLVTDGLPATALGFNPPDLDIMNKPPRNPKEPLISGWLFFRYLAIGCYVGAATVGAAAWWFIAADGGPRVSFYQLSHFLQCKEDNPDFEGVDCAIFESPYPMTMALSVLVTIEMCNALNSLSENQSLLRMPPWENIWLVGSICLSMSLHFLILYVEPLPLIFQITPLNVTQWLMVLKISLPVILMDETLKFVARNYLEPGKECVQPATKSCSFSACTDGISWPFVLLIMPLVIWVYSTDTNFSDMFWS

A word on the EC50: it is the concentration needed to bring the measured effect to its halfway point. With `Cc1ccc2cccc(NS(=O)(=O)c3ccc(OC(C)C)cc3)c2n1` [D1, 4-Isopropoxy-N-(2-methylquinolin-8-yl)benzenesulfonamide], the inhibition in vivo at 50 mg/kg with Ob/ob mice is over 30%. In addition, the viability at 20 µM with HEK293 cells; N2a cells is over 50%. Also, the “SERCA Vmax Increase” value on SERCA was “B (B represents a value greater than 10% and less than or equal to 50%)”. The viability at 7.5 µM in the test on SH-SY5Y cells is over 50%. This molecule gave a concentration for a half-maximal effect (EC50) in the test on CSM14.1 neuronal cells of under 10 µM.
On to `CCOc1ccc(S(=O)(=O)Nc2cccc3ccc(C)nc23)cc1` [D2, 4-Ethoxy-N-(2-methylquinolin-8-yl)benzenesulfonamide], for which, in the test with Ob/ob mice, the inhibition in vivo at 50 mg/kg is over 30%. Besides, in the test with HEK293 cells; N2a cells, the viability at 20 µM was 10 to 50%. For the same molecule, at SERCA, the “SERCA Vmax Increase” value is on record as “A (A represents an increase in SERCA Vmax greater than 50%)”. The viability at 7.5 µM with SH-SY5Y cells was over 50%. Also, the EC50 in the test with CSM14.1 neuronal cells was under 10 µM.
Consider `COc1c(C)cccc1S(=O)(=O)Nc1cccc2ccc(C)nc12` [D3, 2-Methoxy-3-methyl-N-(2-methylquinolin-8-yl)benzenesulfonamide], for which, in the test with Ob/ob mice, the inhibition in vivo at 50 mg/kg lay within 10 to 20%. In addition, the viability at 20 µM with HEK293 cells; N2a cells lay within 10 to 50%. Also, the “SERCA Vmax Increase” value on SERCA is “A (A represents an increase in SERCA Vmax greater than 50%)”. In addition, the viability at 7.5 µM with SH-SY5Y cells lay within 10 to 50%. For the same molecule, the EC50 with CSM14.1 neuronal cells is 10 to 20 µM.
For `Cc1ccc2cccc(NS(=O)(=O)c3cc4ccccc4s3)c2n1` [D4, N-(2-Methylquinolin-8-yl)benzo[b]thiophene-2-sulfonamide], the inhibition in vivo at 50 mg/kg in the test on Ob/ob mice is over 30%. The viability at 20 µM in the test on HEK293 cells; N2a cells was over 50%. At SERCA, the “SERCA Vmax Increase” value is “B (B represents a value greater than 10% and less than or equal to 50%)”. Further, the viability at 7.5 µM in the test with SH-SY5Y cells lay within 10 to 50%. In the test with CSM14.1 neuronal cells, this molecule returned an EC50 of 10 to 20 µM.
Consider `Cc1ccc2cccc(NS(=O)(=O)c3ccc(C(F)(F)F)cc3)c2n1` [D5, 4-Trifluoromethyl-N-(2-methylquinolin-8-yl)benzenesulfonamide], for which the inhibition in vivo at 50 mg/kg in the test on Ob/ob mice lay in the range of 21 to 30%. The viability at 20 µM in the test on HEK293 cells; N2a cells was over 50%. For the same molecule, at SERCA, the “SERCA Vmax Increase” value is recorded as “A (A represents an increase in SERCA Vmax greater than 50%)”. Further, the viability at 7.5 µM in the test with SH-SY5Y cells lay within 10 to 50%. For the same molecule, the 50% effective concentration (EC50) in the test on CSM14.1 neuronal cells is under 10 µM.
The corresponding values for `Cc1ccc2cccc(NS(=O)(=O)c3ccc(C#N)cc3)c2n1` [D6, 4-Cyano-N-(2-methylquinolin-8-yl)benzenesulfonamide] are 21 to 30%, 10 to 50%, “A (A represents an increase in SERCA Vmax greater than 50%)”, 1 to 10% and 10 to 20 µM.
As to `Cc1ccc2cccc(NS(=O)(=O)c3ccc(N(C)C)cc3)c2n1` [D7, 4-Dimethylamino-N-(2-methylquinolin-8-yl)benzenesulfonamide], in the test with Ob/ob mice, the inhibition in vivo at 50 mg/kg was in the range of 21 to 30%. In addition, the viability at 20 µM in the test with HEK293 cells; N2a cells was 10 to 50%. The “SERCA Vmax Increase” value on SERCA is “B (B represents a value greater than 10% and less than or equal to 50%)”. Moreover, the viability at 7.5 µM in the test on SH-SY5Y cells lay in the range of 1 to 10%. In the test with CSM14.1 neuronal cells, this molecule showed an EC50 of 10 to 20 µM.
With `Cc1ccc2cccc(NS(=O)(=O)c3cc(Br)cs3)c2n1` [D8, 4-Bromo-N-(2-methylquinolin-8-yl)thiophene-2-sulfonamide], in the test on Ob/ob mice, the inhibition in vivo at 50 mg/kg was over 30%. The viability at 20 µM with HEK293 cells; N2a cells was over 50%. The “SERCA Vmax Increase” value at SERCA is “B (B represents a value greater than 10% and less than or equal to 50%)”. For the same molecule, the viability at 7.5 µM in the test on SH-SY5Y cells was in the range of 10 to 50%. In addition, the EC50 with CSM14.1 neuronal cells fell in the range of 10 to 20 µM.
For the molecule `Cc1ccc2cccc(NS(=O)(=O)c3ccc(C)o3)c2n1` [D9, 5-Methyl-N-(2-methylquinolin-8-yl)furan-2-sulfonamide], in the test on Ob/ob mice, the inhibition in vivo at 50 mg/kg is 10 to 20%. Besides, the viability at 20 µM in the test with HEK293 cells; N2a cells lay in the range of 10 to 50%. Further, the “SERCA Vmax Increase” value on SERCA is “B (B represents a value greater than 10% and less than or equal to 50%)”. The viability at 7.5 µM with SH-SY5Y cells lay in the range of 10 to 50%. The same molecule yielded a concentration for a half-maximal effect (EC50) in the test with CSM14.1 neuronal cells of 10 to 20 µM.
Take `Cc1ccc2cccc(NS(=O)(=O)c3ccc(C(C)(C)C)cc3)c2n1` [D10, 4-(tent-Butyl)-N-(2-methylquinolin-8-yl)benzenesulfonamide]: the inhibition in vivo at 50 mg/kg with Ob/ob mice lay in the range of 21 to 30%. Moreover, the viability at 20 µM in the test with HEK293 cells; N2a cells fell in the range of 10 to 50%. In addition, the “SERCA Vmax Increase” value at SERCA is listed as “A (A represents an increase in SERCA Vmax greater than 50%)”. The viability at 7.5 µM in the test on SH-SY5Y cells lay in the range of 10 to 50%. The EC50 with CSM14.1 neuronal cells fell in the range of 10 to 20 µM.
